Data published in publication PMC6788505 (2019).

Tests used:
[1] = test system: CA40_1MM (DNA, aptamer) ACGCTCCGGACTTGGGTGGGTGGGTTGGGGTACGGTGTGT; assay: E-AB sensor, square-wave voltammetry; settings: working buffer; apparent; surface-bound
[2] = test system: CA40_2MM (DNA, aptamer) ACGCTCTGGACTTGGGTGGGTGGGTTGGGGTACGGTGTGT; assay: E-AB sensor, square-wave voltammetry; settings: working buffer; apparent; surface-bound
[3] = test system: CA36 (DNA, aptamer) GCTCCGGACTTGGGTGGGTGGGTTGGGGTACGGTGC; assay: E-AB sensor, square-wave voltammetry; settings: working buffer; apparent; surface-bound
[4] = test system: CA32 (DNA, aptamer) TCCGGACTTGGGTGGGTGGGTTGGGGTACGGT; assay: E-AB sensor, square-wave voltammetry; settings: working buffer; apparent; surface-bound
[5] = test system: CA28 (DNA, aptamer) CGGACTTGGGTGGGTGGGTTGGGGTACG; assay: E-AB sensor, square-wave voltammetry; settings: working buffer; apparent; surface-bound; KD fixed in fit
[6] = test system: CA16 (DNA, G4) GGGTGGGTGGGTTGGG; assay: E-AB sensor, square-wave voltammetry; settings: working buffer; apparent; surface-bound; KD fixed in fit
[7] = test system: CA40 (DNA, aptamer) ACGCTCCGGACTTGGGTGGGTGGGTTGGGGTACGGTGCGT; assay: fluorescence titration (intrinsic irinotecan fluorescence); settings: working buffer; 1 µM irinotecan titrated with aptamer; excitation 370 nm
[8] = test system: CA32 (DNA, aptamer) TCCGGACTTGGGTGGGTGGGTTGGGGTACGGT; assay: E-AB sensor, kinetic differential measurement (10 and 120 Hz); settings: buffer; apparent; co-deposited 1:1 with linear probe; surface-bound

With `CCc1c2c(nc3ccc(OC(=O)N4CCC(N5CCCCC5)CC4)cc13)-c1cc3c(c(=O)n1C2)COC(=O)[C@]3(O)CC` the binding [1] was “yes”, the binding [2] was “yes” and the binding [3] was “yes”. The binding [4] was “yes”, the binding [5] was “yes” and the binding [6] was “yes”. For the same molecule, the KD [7] was 475 ± 10 nM and the KD [8] was 16.0 ± 1.3 µM.
